Patent US10624828B2, “Personal care compositions comprising a 2-pyridinol N-oxide material and an iron chelator” (The Procter & Gamble Company, priority 2017, dated 2020)
Marks after values point to notes of the source that are not given here.

Experiments:
[1] = NIST Standard Reference Database 46; cited from earlier work
[2] = tested on: Staphylococcus aureus ATCC 6538; experiment: Minimum Inhibitory Concentration (MIC), broth dilution, visual pellet reading; assay type: cell-based; conditions: S. aureus ATCC 6538, material alone, 37° C., 24 hours, average of triplicates
Experimental: The minimum inhibitory concentration (“MIC”) is the concentration (in ppm) of anti-bacterial agent that causes growth inhibition of bacteria so that no pellet is formed in the culture medium (as explained below in the method). […] Staphylococcus aureus ATCC 6538 is cultured onto tryptic soy agar (TSA) (Oxoid CM0131) over 24 hours. […] This gives 5×10^5 cfu/mL. […] The plate is then placed into a plastic sheet to minimize evaporation. The plate is then incubated at 37° C. for 24 hours. After 24 hours, the plate is removed and read visually to determine if a pellet is formed at the bottom of the well versus positive (without adding antibacterial material) and negative (without bacterial inoculum) growth controls. […] The experiment is carried out in triplicates and the MIC values are determined by the average of the results.

[3] = tested on: Staphylococcus aureus ATCC 6538; experiment: Combinatorial Minimum Inhibitory Concentration (cMIC), OD 620 nm; conditions: for MIC: minimum amount of chelant at which there is no bacteria growth: chelator alone (0 ppm piroctone olamine)
Experimental: A Combinatorial Minimum Inhibitory Concentration (“cMIC”) is used to determine the combinatorial effects of two chemicals on anti-bacterial activity in a tissue culture setting. Herein, the cMIC is a measure of the Minimum Inhibitory concentrations of 1-hydroxy-4-methyl-6-(2,4,4-trimethylpentyl)-2-pyridone monoethanolamine salt in combination with a chelant or vice versa.
Method Overview: • a. Each cMIC assay is run in triplicates. • b. Staphylococcus aureus ATCC 6538 is cultured on tryptic soy agar (TSA) (Oxoid CM0131) over 24 hours. The single colonies are then transferred into saline and mixed through vortex to obtain an optical density (OD) of 0.08-0.13 at 620 nm. 200 uL of this bacterial suspension is added to 19.8 mL of Mueller Hinton Broth (MHB) (BD 212322). This gives 5×10^5 cfu/mL. 100 uL of this bacteria-MHB mix is added to a 96 well flat-bottomed plate (TRP 92196). • c. 1-hydroxy-4-methyl-6-(2,4,4-trimethylpentyl)-2-pyridone monoethanolamine salt is pipetted into the wells in varying concentrations as indicated below. • d. Different Chelants are pipetted into the wells in varying concentrations, as indicated below. • e. The plates are then read using a spectrophotometer at 620 nm. This is the 0-hour reading. • f. The plates are incubated at 37° C. for 18 hours with shaking at 50 rpm. • g. The optical density of the plate is then measured using a spectrophotometer at 620 nm. • h. The OD value is calculated as subtraction of the readings between 18-hour and the 0-hour. • i. cMIC is determined as the minimal concentration of 1-hydroxy-4-methyl-6-(2,4,4-trimethylpentyl)-2-pyridone monoethanolamine salt in combination with a chelant or vice versa, corresponding to the well whose OD value is less than 10% of the OD value of the control well without 1-hydroxy-4-methyl-6-(2,4,4-trimethylpentyl)-2-pyridone monoethanolamine salt and chelator (full growth).

[4] = 3.125 ppm piroctone olamine combined with chelator (62.5 ppm DTPMP or 250 ppm DTPA), (MIC − cMIC)/MIC x 100%
[5] = 6.25 ppm piroctone olamine combined with chelator (15.6 ppm DTPMP or 125 ppm DTPA)
[6] = 6.25 ppm piroctone olamine combined with chelator (15.6 ppm DTPMP or 125 ppm DTPA), (MIC − cMIC)/MIC x 100%
[7] = in the presence of 3.125 ppm piroctone olamine
[8] = in the presence of 6.25 ppm piroctone olamine

Row | Compound | Log K1 (iron binding affinity) [1] | MIC (ppm) [2] [ppm] | Antibacterial Efficiency of piroctone olamine boosted by Chelator [3, 4] [%] | boost of antibacterial efficacy of piroctone olamine alone (fold) [3, 5] [fold] | Antibacterial Efficiency of piroctone olamine boosted by Chelator [3, 6] [%] | MIC: minimum amount of chelant at which there is no bacteria growth [3] | cMIC: minimum amount of chelant at which there is no bacteria growth in the presence of piroctone olamine [3, 7] | cMIC: minimum amount of chelant at which there is no bacteria growth in the presence of piroctone olamine [3, 8] | further results
1 | O=C(O)CC(O)(CC(=O)O)C(=O)O [Citric Acid] | 11 |  |  |  |  |  |  |  | 
2 | O=C(O)CN(CCN(CC(=O)O)CC(=O)O)CCN(CC(=O)O)CC(=O)O [DTPA, diethylenetriaminepentaacetic acid] | 28 | 500 | 75 | 2 | 50 | 500^# ppm | 250^## ppm | 125^## ppm | 
3 | O=P(O)(O)CN(CCN(CP(=O)(O)O)CP(=O)(O)O)CCN(CP(=O)(O)O)CP(=O)(O)O [DTPMP, Diethylenetriaminepentakis (methylenephosphonic acid)] | 23 | 250 | 75 | 2 | 50 | 250^# ppm | 62.5^## ppm | 15.6^## ppm | boost of antibacterial efficacy of piroctone olamine alone (fold) ([3]; 3.125 ppm piroctone olamine combined with chelator (62.5 ppm DTPMP or 250 ppm chelator)): 4 fold
4 | CC(=O)N(O)CCCCCNC(=O)CCC(=O)N(O)CCCCCNC(=O)CCC(=O)N(O)CCCCCN [Desferrioxamine, reference compound] | 31 |  |  |  |  |  |  |  | 
5 | CC(C(=O)O)N(CC(=O)O)CC(=O)O (stereo not shown) [MGDA, Methylglycine diacetic acid] | 16 |  |  |  |  |  |  |  | 
6 | Cc1cc(CC(C)CC(C)(C)C)n(O)c(=O)c1.NCCO (stereo not shown) [reference compound] |  |  |  |  |  |  |  |  | MIC ([2]; Staphylococcus aureus, ATCC6538): 12.5 µg/mL; Antibacterial Efficiency of piroctone olamine boosted by Chelator ([3]; 12.5 ppm piroctone olamine, 0 ppm chelator): 0; cMIC: minimum amount of piroctone olamine at which there is no bacteria growth in the presence of chelant ([3]; in the presence of 125 ppm DTPA): 6.25** ppm; cMIC: minimum amount of piroctone olamine at which there is no bacteria growth in the presence of chelant ([3]; in the presence of 250 ppm DTPA): 3.125** ppm; MICpiroctone olamine: minimum amount of the salt at which there is no bacteria growth ([3]; piroctone olamine alone (0 ppm chelator)): 12.5* ppm
